{"source": "patent US20190167676A1", "about": "“METHODS FOR IMPROVING RESISTANCE TO SKELETAL MUSCLE FATIGUE” (Cytokinetics, Inc., priority 2012, published 2019)", "key": {"[1]": {"test_system": "rat FDB muscle", "test": "Isometric tension force/frequency in rat FDB muscle in vitro", "conditions": "10 μM, FIG. 1", "protocol": "Adult male Sprague-Dawley rats (Charles River) between 250 and 300 g were anesthetized with a mixture of isoflurane gas and oxygen and quickly euthanized by cardiac excision. Hind feet were quickly removed at the ankle and placed in oxygenated Krebs solution at 4° C. (composition: 1 mM NaH2PO4, 5 mM KCl, 2 mM CaCl2, 1 mM MgSO4, 137 mM NaCl, 11 mM glucose and 1 mM NaHCO3). Feet were then pinned out in fresh oxygenated Krebs buffer at room temperature and the skin from the sole of the foot removed with scissors. In rats, a small branch of the main flexor digitorum brevis (FDB) muscle extends from the heel of the foot to the little digit. This was dissected free with small scissors and the tendons at each end of the muscle were cut. The muscle was pinned out in Krebs solution and the surrounding fascia removed. Silk thread was tied with a small loop and then knotted on to the end of each tendon, creating a silk loop at each end of the muscle. This was then hooked on to the fixed lever arm and force transducer of an 801A in vitro analysis system (Aurora Scientific, Ontario, Canada) and perfused with Krebs solution at 30° C.\nThe effect of 10 μM of Compound A on the force/frequency relationship was measured."}, "[2]": {"test_system": "rat plantarflexor muscles", "test": "Rat plantar flexor force and power in situ", "format": "in vivo", "excerpt": "Rats were placed under anesthesia using isoflurane and the sciatic nerve of the experimental leg exposed. The rat was then placed on the platform of an Aurora in-situ muscle analysis rig (806C), maintained at body temperature via a circulating water system. The knee was immobilized in a clamp between two sharpened screws and the foot attached securely to the footplate of a force transducer (Aurora Scientific, Ontario, Canada) using laboratory tape. The muscle was stimulated directly via the sciatic nerve. For isolation of the nerve, a 1 cm incision was made at the upper thigh and the overlying muscle was dissected to expose an approximate 5 mm stretch of the sciatic nerve. This was then dissected free of surrounding connective tissue and a pair of stainless steel needle electrodes (0.10 mm) were hooked around the exposed nerve. The peroneal branch was severed to remove innervation to the plantar-extensor muscle groups. Muscle contractile properties were assessed by applying an electrical current to the nerve and recording the force generated by the muscle via a servomotor. Isokinetic contractile properties were assessed as force generated during a pre-programmed movement of the footplate. Footplate movements were 0.7 radians in size ([…]).\nSolutions of Compound A (50% PEG300/10% EtOH/40% cavitron formulation) were administered via a femoral vein catheter as a single slow bolus over a 2 min period, with a maximal dosage volume of 5 ml/Kg. During the experiment, blood was drawn via the tail vein for compound concentration analysis. At the end of each assay, the length and weight of the muscle was recorded, and measured force normalized to the mass of the muscle (N/g).\nCompound A increased force generation throughout the curve to generate a total of 55% more work over the 300 second period, while maintaining a similar profile to that of the vehicle.\nThe same protocol was repeated with a second skeletal muscle troponin activator, 1-((1R)-1-methylpropyl)-6-chloro-7-pyrazolylimidazo[4,5-b]pyridin-2-ol (Compound B). Compound B and analogous skeletal muscle troponin activators are disclosed in U.S. Pat. No. 7,989,469. […] 0.7 radian displacement and stimulation frequency calculated to provide 50% of maximum isokinetic tension. Compound B maintained force generation throughout the curve, at almost 50% of vehicle stimulation frequency, to generate the same total work over the 300 second period, while maintaining a similar profile to that of the vehicle."}, "[3]": {"test_system": "healthy rats", "test": "Rotarod running assay", "format": "in vivo, rat", "conditions": "for Run time (s) mean ± SEM: 30 minutes prior", "protocol": "Female Sprague Dawley rats (210-260 g) were obtained from Charles River Laboratories and acclimated in the test facility for a minimum of six days prior to the start of the study. All rats were trained the day prior to compound administration. Training consisted of placing the rats on the rotating drum (rod), starting at a low constant speed (10 RPM). The rats were acclimated to walk on the drum for 5 minutes before resting. A second training session of an increasing speed from 14-16 RPM was initiated after all rats in the experimental group had finished the first training session. […] On the day of the experiment animals were dosed thirty minutes prior to start of test. The test began with a 5 minute primer session, whereby animals were run at an increasing speed from 14-16 RPM over 5 minutes. Rats were then run at a constantly accelerating rate from 12 RPM to 25 RPM over the course of 10 minutes. […] Time to fall was recorded, with the test being terminated at 900 seconds. Compound A was administered via oral gavage 30 minutes prior to assessment. Each dose was formulated as a suspension containing 0.2% Tween 80, 0.5% HPMC and water. Dose volume was 5 mL/kg. Vehicle (0.2% Tween 80, 0.5% HPMC and water) was administered similarly. Control treatments were chosen based on association with amelioration of central fatigue (caffeine, Davis 2003), muscular fatigue (creatine, Boyadjiev, 2007) and dual central/muscular fatigue (phosphoserine, […] 1976)."}, "[4]": {"test_system": "healthy rats", "test": "Treadmill running assay", "format": "in vivo, rat", "protocol": "Male Sprague Dawley rats (Charles River), 10-12 weeks old, 250-400 g. Rats were acclimated for a minimum of 2 days and weight was measured weekly. The endurance capacity of rats was assessed using a progressive exercise test as previously described (A. Aaker et al. J Cardiovasc Pharmacol28: 353-362, 1996; B. Helwig et al. J Appl Physiol. 2003 June; 94(6):2225-36). After familiarization with the treadmill apparatus, rats were run at a treadmill speed of 30 meters per minute (m/min) with a 5% incline. Every 15 minutes, the treadmill speed was increased by 5 meters per minute and the rats continued to exercise until they reached the point of fatigue and were unable to continue exercising (FIG. 1A). Exercise time was measured in minutes while exercise distance was recorded in meters. Compound A was administered via oral gavage 2 hours prior to assessment. Each dose was formulated as a suspension containing 1% hydroxypropyl methylcellulose (HPMC), 0.2% Tween 80, and micronized Compound A, and dose volume was 5 ml/kg. Vehicle (0.2% Tween 80, 1% HPMC and water) was administered similarly."}, "[5]": {"biological_target": "T1, myofibrils from slow skeletal muscle (Homo sapiens, UniProt P63316)", "T1 construct": "from tissue; host or cells: slow skeletal muscle myofibrils", "conditions": "cited from earlier work"}, "[6]": {"test_system": "skinned fast skeletal muscle fibers from rabbit psoas muscle", "conditions": "cited from earlier work"}, "[7]": {"conditions": "10 mg/kg oral gavage 2 hours prior"}, "[8]": {"conditions": "20 mg/kg oral gavage 2 hours prior"}}}
{"smiles": "C#Cc1cnc2nc(O)n(C(CC)CC)c2n1", "note": "[Compound A, 6-ethynyl-1-(pentan-3-yl)-1H-imidazo[4,5-b]pyrazin-2-ol]", "values": [{"measurement": "sub-maximal force development (force/frequency relationship)", "setting": "[1]", "result": "increased sub-maximal force development"}, {"measurement": "isokinetic force frequency relationship", "setting": "[2]; at 3.1 radians/s", "result": "increased in the submaximal range in a dose dependent manner"}, {"measurement": "force-velocity relationship", "setting": "[2]; at 30 Hz", "result": "increased across all velocities in a dose and velocity dependent manner"}, {"measurement": "power output", "setting": "[2]; corresponding to force velocities at 30 Hz", "result": "dose dependent increase"}, {"measurement": "isometric force frequency relationship", "setting": "[2]; in situ", "result": "increased in the submaximal range in a dose dependent manner"}, {"measurement": "more total work over the 300 second period", "setting": "[2]; isokinetic fatigue protocol, 1 flexion per second at 3.1 radians/s, 30 Hz, vs vehicle", "result": 55, "unit": "%"}, {"measurement": "Run time (s) mean ± SEM", "setting": "[3]; 0.3 mg/kg oral gavage", "result": "301 ± 36", "unit": "s"}, {"measurement": "Run time (s) mean ± SEM", "setting": "[3]; 1 mg/kg oral gavage", "result": "334 ± 29", "unit": "s"}, {"measurement": "Run time (s) mean ± SEM", "setting": "[3]; 3 mg/kg oral gavage", "result": "389 ± 65", "unit": "s"}, {"measurement": "change of running time", "setting": "[3]; 3 mg/kg, maximum dose tested", "result": "more than a doubling of running time"}, {"measurement": "Distance (m) Mean ± SEM", "setting": "[4]; [7]", "result": "1972 ± 176", "unit": "m"}, {"measurement": "Time (Min) Mean ± SEM", "setting": "[4]; [7]", "result": "60.7 ± 4.2", "unit": "min"}, {"measurement": "Distance (m) Mean ± SEM", "setting": "[4]; [8]", "result": "1943 ± 205", "unit": "m"}, {"measurement": "Time (Min) Mean ± SEM", "setting": "[4]; [8]", "result": "59.4 ± 4.7", "unit": "min"}, {"measurement": "increase in treadmill running time over baseline", "setting": "[4]; 10 and 20 mg/kg", "result": 20, "unit": "%"}, {"measurement": "increase in treadmill running time over vehicle control", "setting": "[4]; 10 and 20 mg/kg", "result": 50, "unit": "%"}, {"measurement": "effect in myofibrils", "setting": "[5]", "result": "little or no effect"}, {"measurement": "force-calcium relationship", "setting": "[6]", "result": "leftward-shift of the force-calcium relationship"}]}
